Test results: US8420777B2, “Compounds that inhibit Hsp90 protein-protein interactions with IAP proteins” (University of Massachusetts, priority 2004, dated 2013)

Experiments:
[1] = test system: HL-60 and THP-1 AML cell lines; test: MTT cell viability, short versus full length peptide; assay type: cell-based; details: 4×10^5 cells
Experimental: FIGS. 29B-29D are graphs depicting killing of AML cells by Survivin peptides. FIG. 29B depicts survivin peptide activity in HL-60 cells, measured by Trypan blue exclusion. FIGS. 29C and 29D depict killing, as measured using MTT, of HL-60 (FIG. 29C) or THP-1 (FIG. 29D) cells by full length Survivin peptide (SEQ ID NO:19), Survivin peptide K79-G83 (SEQ ID NO:20), or scrambled peptide (SEQ ID NO:25 and SEQ ID NO:28).
The activity of a shorter Survivin peptide was also tested in an AML cell line. A shorter cell permeable Survivin peptide was synthesized by fusing the third α-helix of the Antennapedia carrier sequence to the amino-terminus of the Survivin peptide sequence K79-G83 (SEQ ID NO:20). […] The scrambled control peptide ([…]; SEQ ID NO:28) was ineffective (FIGS. 29C, D). For these experiments a higher number of cells was used (4×10^5) to produce a 50% killing efficiency by full length survivin peptide.

HL-60 cells = test: Cell killing by trypan blue exclusion; assay type: cell-based
Experimental: The expression and function of the survivin-Hsp90 pathway in acute myelogenous leukemia (AML) cell lines was analyzed. Survivin was abundantly expressed in four AML cell lines, U937, K-562, THP-1 and HL-60, by Western blotting (FIG. 29A).

[2] = test system: breast carcinoma MCF-7 cells; test: Multiparametric flow cytometry of caspase activity and membrane integrity; assay type: cell-based; details: MCF-7 (wild type p53), 24 hours
Experimental: For multiparametric analysis of caspase-dependent cell death and loss of plasma membrane integrity, HeLa, MCF-7, or genetically engineered HCT116 cells (obtained from ATCC) were loaded with increasing concentrations of cell permeable control scrambled peptide or the Survivin peptide, harvested after culturing for 24 hours at 37° C., and analyzed for cell viability (propidium iodide, red channel) and active caspase-3 activity (CaspaTag™ from Intergen, Purchase, N.Y., green channel) by flow cytometry.
Experiments were performed as in Example 13, except that breast carcinoma MCF-7 cells (wild type p53) were analyzed by multiparametric flow cytometry of induction of caspase activity and loss of cell membrane integrity after intracellular loading with cell permeable Control (SEQ ID NO:25) or Survivin (SEQ ID NO:19) cell permeable peptide.

recombinant Hsp90 = biological target: T1, recombinant Hsp90 (Homo sapiens, UniProt P07900, S63T); test: ELISA binding to recombinant Hsp90
T1 construct: GST-Hsp90 (amino acids 1-732); GST (N); made in house; host or cells: E. coli
Excerpt: (§1) FIG. 31 is a graph depicting Hsp90 binding by Survivin peptides, measured by ELISA. Data are the mean±S.D. of two independent experiments.

survivin-Hsp90 = biological target: T2, survivin-Hsp90 (Homo sapiens, UniProt P07900, S63T); test: ELISA inhibition of recombinant survivin binding to Hsp90
T2 construct: GST-Hsp90 (amino acids 1-732); GST (N); made in house; host or cells: E. coli
Excerpt: as §1

[3] = test system: HFF, HGF, WS-1 normal cells; test: MTT colorimetric viability assay, normal cell types; assay type: cell-based, human; details: 24 hours
Experimental: FIGS. 22A and 22B compares the effect of P31 (SEQ ID NO:19) or P33 (SEQ ID NO:25) on apoptosis of tumor cell lines (FIG. 22A) and normal cell lines (FIG. 22B). The following tumor cell lines DU145 (prostate cancer, circles), PC3 (prostate cancer, triangles), or HeLa (cervical carcinoma, squares) were treated with the indicated increasing concentrations of P31 peptide (solid symbols) or control P33 peptide (open symbols), harvested after 24 hours, and analyzed for cell viability using an MTT colorimetric assay. For normal cell types (right panel), HFF (human foreskin fibroblasts, squares), HGF (human fibroblasts, triangles) or WS-1 (human epithelial cells, circles) were treated with P31 (solid symbols) or control scrambled peptide P33, harvested after 24 hours and analyzed for overall cell viability by MTT colorimetric assay. All cell lines were from ATCC.

N-terminus of Hsp90 = biological target: T3, N-terminus of Hsp90 (Homo sapiens, UniProt P07900, S63T); test: ELISA of immobilized peptide with Hsp90 fragments; assay type: binding; details: compared to P33 peptide
T3 construct: GST (N); made in house; host or cells: E. coli
Experimental: ELISA experiments were performed by immobilizing recombinant Survivin (r-Survivin) ([…]) or recombinant Hsp90 (r-Hsp90) (10 μg/ml) on plastic microtiter wells (Immulon™-2, Dynatech Laboratories, Chantilly, Va.) using bicarbonate buffer, pH 9.5 (100 μl/well) for 18 hours at 4° C. Bound protein was blocked with 3% gelatin for 1 hour at 37° C., rinsed with washing buffer (TBS pH 7.4, 0.1% Tween™, 0.1% BSA) and incubated for 1 hour at 37° C. with different concentrations of a test protein to determine if the test protein bound the immobilized protein.
Nucleotide sequences encoding full length Hsp90α (SEQ ID NO:21; amino acids 1-732) or three fragments: N-Hsp90 (amino acids 1-272 of SEQ ID NO:21), M-Hsp90, (amino acids 273-617 of SEQ ID NO:21), and C-Hsp90 (amino acids 629-732 of SEQ ID NO:21) were cloned by PCR in pGex-4T3 (Pharmacia Biotech.) and pFLAG-CMV 6c (Sigma) using the BamHI cloning sites. GST fusions of full length Hsp90, or individual Hsp90 fragments were expressed in E. coli and bound to glutathione beads (Sigma). Purified recombinant Survivin devoid of the GST frame was obtained as described in Example 2.
FIGS. 24A and 24B identify the location of P31 peptide's binding site as the N-terminus domain of Hsp90. […] After washing, binding of the individual Hsp90 fragments to the immobilized peptides was detected with an antibody to Hsp90. […]

[4] = test system: breast carcinoma MCF-7 cells; test: Soft agar colony formation (anchorage-independent growth); assay type: cell-based; details: 75 or 150 μm in growth media, relative to Control scrambled peptide
Experimental: For soft agar colony formation, 2×10^4 adapted breast carcinoma MCF-7 cells were suspended in 1.5 ml of DMEM supplemented with 10% FBS and 0.35% bactoagar (Becton Dickinson, Sparks, Md.) in 36 mm tissue culture plates containing 1.5 ml of 0.75% agarose in growth medium at the bottom layer. The plates were incubated at 37° C. in a 5% CO2 incubator for 2-5 weeks. The colonies were stained with 0.005% crystal violet (Sigma) and counted using a dissecting microscope under high power field.
The two upper plates shown in FIG. 19 had no visible cell colonies.

RQIKIWFQNRRMKWKKKHSSGCAFL (Synthetically generated peptide) [P31]
killing efficiency [1]: 50% | cell killing (trypan blue exclusion) (HL-60 cells): dose-dependent and complete cell killing | caspase-dependent apoptosis [2]: induces apoptosis | binding to recombinant Hsp90 in vitro (recombinant Hsp90): comparably bound recombinant Hsp90 | inhibition of binding of recombinant survivin to Hsp90 (survivin-Hsp90): inhibited the binding of recombinant survivin to Hsp90 in a dose-dependent manner | cell death in normal cell types (MTT) [3]: did not induce cell death in any of the three normal cell types | binding to the N-terminus of Hsp90 (OD405) (N-terminus of Hsp90): bound specifically | anchorage-independent cell growth and survival [4]: completely inhibited
